# Assay results: US20260071179A1, “PRODUCTION METHOD OF NERVE CELLS DAMAGED BY OXIDATIVE STRESS AND APPLICATIONS THEREOF” (FUJIFILM Corporation, priority 2023, published 2026)
# Tested on: iCell motor neurons
# Assay: Evaluation of necroptosis inhibitor for oxidative stress-induced neuronal damage (neurite length, IncuCyte S3 Neurotrack)
# Assay type: cell-based, human
# Conditions: iCell motor neurons in −AO culture medium (Stress(+)), 4.7×10^4 cells/cm^2, compound 0.01 to 20 μM, FIG. 14
# Experimental: (§1) A solution obtained by diluting iMatrix-511 silk (Matrixome, 892021) 16.7 times with PBS was added to a 96-well plate (Corning, 356461) coated with PDL at 70 μL/well, and incubated at 37° C. for 3 hours to 72 hours.
# (§2) As a culture medium containing an antioxidant, a culture medium (Stress(−)) in which DMSO was added to a +AO culture medium to a final concentration of 0.1% by volume (v/v) was used, as a culture medium not containing an antioxidant, a culture medium (Stress(+)) in which DMSO was added to a −AO culture medium to a final concentration of 0.1% by volume (v/v), and as the culture medium of the drug evaluation group, a culture medium in which a DMSO-dissolved compound was added to the −AO culture medium to a concentration of 0.1% by volume (v/v) (0.01 to 20 μM) was used.
# Frozen cells (iCell motor neurons, FCDI, C1048) were thawed in a warm bath at 37° C. After melting, the cells were added to a culture medium and centrifuged at 600×g at room temperature for 5 minutes. After centrifugation, the supernatant was removed, the cells were suspended in 1 mL of the culture medium, and the number of cells was counted. Thereafter, the cells were diluted with a culture medium, seeded at 200 μL/well (4.7×10^4 cells/cm^2), and cultured under the conditions of 37° C. and 5% CO2. […]
# (§3) The neurite length was quantified using the Neurotrack software (Sartorius, 9600-0010) of IncuCyte S3.
row,Structure (SMILES),reduction in the sum of the neurite lengths
1,CN1C(=O)C(Cc2c[nH]c3ccccc23)NC1=S (stereo not shown) [Necrostatin-1],suppressed in a concentration-dependent manner

# Tested on: nerve cells (considered to be cortical excitatory neurons) produced by forcibly expressing the Ngn2 genes from the iPS cells
# Assay: Evaluation of compound for oxidative stress-induced neuronal damage (neurite length, IncuCyte S3 Neurotrack)
# Assay type: cell-based, human
# Conditions: same method as in Test Example 7, −AO culture medium (Stress(+)), FIG. 19
# Experimental: as §1
# as §2, with “(0.004” for “(0.01”
# The nerve cells (considered to be cortical excitatory neurons) produced by forcibly expressing the Ngn2 genes from the iPS cells was thawed in a warm bath at 37° C. […] After centrifugation, the supernatant was removed, the cells were suspended in 1 mL of the culture medium, and the number of cells was counted. […]
# as §3
# The effect of edaravone, which was used as a therapeutic drug for ALS, on oxidative stress-induced neuronal damage was evaluated by the same method as in Test Example 7. […]
row,Structure (SMILES),reduction in the sum of the neurite lengths
1,CC1=NN(c2ccccc2)C(=O)C1 [edaravone],suppressed in a concentration-dependent manner

# Tested on: iCell motor neurons
# Assay: Compound screening using oxidative stress-induced neuronal damage evaluation system (AUC of neurite length over 14 days)
# Assay type: cell-based, human
# Conditions: iCell motor neurons in −AO culture medium (Stress(+)), 4.7×10^4 cells/cm^2, StemSelect Library compounds, FIG. 18
# Experimental: as §1
# as §2, with “As the compound library, StemSelect Library compounds (Merck, 569774) were used. As” for “As”, “(v/v)” for “(v/v) (0.01 to 20 μM)”
# Frozen cells (iCell motor neurons, FCDI, C1048) were thawed in a warm bath at 37° C. After melting, the cells were added to a culture medium and centrifuged at 600×g at room temperature for 5 minutes. After centrifugation, the supernatant was removed, the cells were suspended in 1 mL of the culture medium, and the number of cells was counted. Thereafter, the cells were diluted with a culture medium, seeded at 200 μL/well (4.7×10^4 cells/cm^2), and cultured under the conditions of 37° C. and 5% CO2. After culturing, images were acquired by imaging with IncuCyte S3 (Sartorius, Incucyte S3) every 6 hours.
# The neurite length was quantified using the Neurotrack software (Sartorius, 9600-0010) of IncuCyte S3. The area under the curve (AUC) of the curve of the neurite length over time for 14 days was calculated, and the effects of the drug were compared. […] The AUC of the nerve cells (Stress(+) group) (▴) cultured in the culture medium not containing an antioxidant was reduced as compared with the nerve cells (Stress(−) group) (▪) cultured in the culture medium containing an antioxidant.
row,Structure (SMILES),reduction in AUC of the curve of the neurite length over time for 14 days
1,CCCC(=O)OCc1ccc(OC(=O)/C=C(C)/C=C/C=C(C)/C=C/C2=C(C)CCCC2(C)C)cc1 [ATRA-BA Hybrid],strongly suppressed
2,Clc1ccccc1CNCC1CCC(CNCc2ccccc2Cl)CC1 (stereo not shown) [AY 9944],strongly suppressed
3,O=C(O)c1ccc2cc(-c3ccc(O)c(C45CC6CC(CC(C6)C4)C5)c3)ccc2c1 [CD437/AHPN],strongly suppressed
4,N=C(N)SCCc1ccc(OCc2ccc([N+](=O)[O-])cc2)cc1 [KB-R7943],strongly suppressed
5,C=CC(C)(C)c1cc(/C=C/C(=O)c2ccc(O)cc2)c(OC)cc1O [Licochalcone-A],strongly suppressed
6,CC[C@H](C)C(=O)O[C@H]1CCC=C2C=C[C@H](C)[C@H](CC[C@@H]3C[C@@H](O)CC(=O)O3)[C@H]21 [Mevastatin],strongly suppressed
7,CC#C[C@]1(O)CC[C@H]2[C@@H]3CCC4=CC(=O)CCC4=C3[C@@H](c3ccc(N(C)C)cc3)C[C@@]21C [Mifepristone],strongly suppressed
8,c1ccc2c(Oc3nc(Nc4ccc(N5CCOCC5)cc4)c4ncn(C5CCCCC5)c4n3)cccc2c1 [Purmorphamine],strongly suppressed
9,c1nc2nc(Nc3ccc(N4CCOCC4)cc3)nc(NC3CCCCC3)c2[nH]1 [Reversine],strongly suppressed
10,O=C(Nc1cccc(NC(=O)c2cccc(O)c2O)c1)c1cccc(O)c1O [Telomerase Inhibitor IX],strongly suppressed
11,C[C@H](NC(=O)Cc1cc(F)cc(F)c1)C(=O)N[C@H]1N=C(c2ccccc2)c2ccccc2N(C)C1=O [γ-Secretase Inhibitor XXI],strongly suppressed
